The values that follow are results of earlier work, collected in paper PMC11053612, “Membrane-Fusing Vehicles for Re-Sensitizing Transporter-Mediated Multiple-Drug Resistance in Cancer” (Pharmaceutics, 2024).

Holding throughout (settings): ref [23],[24],[25],[26]
One data set concerns ABCG2. Details: method as in PMID 23470221, PMID 7999426, PMID 11309820, PMID 14973080; key: +: whether they are actively transported or not; −: whether they are actively transported or not.
Another data set has as its target T1, ABCB1 (Homo sapiens, UniProt P08183).
T1 construct: expressed in transfected cells; host or cells: MDCK II MDR1 (canine kidney MDCK II, transfected; gift of Dr. A. Schinkel, Netherlands Cancer Institute)
Details: method as in PMID 23470221, PMID 7999426, PMID 11309820, PMID 14973080; key: +: whether they are actively transported or not.

The target of another data set is T2, ABCC1 (Homo sapiens, UniProt P33527).
T2 construct: expressed in transfected cells; host or cells: MDCK II MRP1 (canine kidney MDCK II, transfected; gift of Dr. A. Schinkel, Netherlands Cancer Institute)
Set-up: method as in PMID 23470221, PMID 7999426, PMID 11309820, PMID 14973080; key: +: whether they are actively transported or not; −: whether they are actively transported or not.

Molecules are shown by their SMILES.

T2 sequence (P33527 whole entry): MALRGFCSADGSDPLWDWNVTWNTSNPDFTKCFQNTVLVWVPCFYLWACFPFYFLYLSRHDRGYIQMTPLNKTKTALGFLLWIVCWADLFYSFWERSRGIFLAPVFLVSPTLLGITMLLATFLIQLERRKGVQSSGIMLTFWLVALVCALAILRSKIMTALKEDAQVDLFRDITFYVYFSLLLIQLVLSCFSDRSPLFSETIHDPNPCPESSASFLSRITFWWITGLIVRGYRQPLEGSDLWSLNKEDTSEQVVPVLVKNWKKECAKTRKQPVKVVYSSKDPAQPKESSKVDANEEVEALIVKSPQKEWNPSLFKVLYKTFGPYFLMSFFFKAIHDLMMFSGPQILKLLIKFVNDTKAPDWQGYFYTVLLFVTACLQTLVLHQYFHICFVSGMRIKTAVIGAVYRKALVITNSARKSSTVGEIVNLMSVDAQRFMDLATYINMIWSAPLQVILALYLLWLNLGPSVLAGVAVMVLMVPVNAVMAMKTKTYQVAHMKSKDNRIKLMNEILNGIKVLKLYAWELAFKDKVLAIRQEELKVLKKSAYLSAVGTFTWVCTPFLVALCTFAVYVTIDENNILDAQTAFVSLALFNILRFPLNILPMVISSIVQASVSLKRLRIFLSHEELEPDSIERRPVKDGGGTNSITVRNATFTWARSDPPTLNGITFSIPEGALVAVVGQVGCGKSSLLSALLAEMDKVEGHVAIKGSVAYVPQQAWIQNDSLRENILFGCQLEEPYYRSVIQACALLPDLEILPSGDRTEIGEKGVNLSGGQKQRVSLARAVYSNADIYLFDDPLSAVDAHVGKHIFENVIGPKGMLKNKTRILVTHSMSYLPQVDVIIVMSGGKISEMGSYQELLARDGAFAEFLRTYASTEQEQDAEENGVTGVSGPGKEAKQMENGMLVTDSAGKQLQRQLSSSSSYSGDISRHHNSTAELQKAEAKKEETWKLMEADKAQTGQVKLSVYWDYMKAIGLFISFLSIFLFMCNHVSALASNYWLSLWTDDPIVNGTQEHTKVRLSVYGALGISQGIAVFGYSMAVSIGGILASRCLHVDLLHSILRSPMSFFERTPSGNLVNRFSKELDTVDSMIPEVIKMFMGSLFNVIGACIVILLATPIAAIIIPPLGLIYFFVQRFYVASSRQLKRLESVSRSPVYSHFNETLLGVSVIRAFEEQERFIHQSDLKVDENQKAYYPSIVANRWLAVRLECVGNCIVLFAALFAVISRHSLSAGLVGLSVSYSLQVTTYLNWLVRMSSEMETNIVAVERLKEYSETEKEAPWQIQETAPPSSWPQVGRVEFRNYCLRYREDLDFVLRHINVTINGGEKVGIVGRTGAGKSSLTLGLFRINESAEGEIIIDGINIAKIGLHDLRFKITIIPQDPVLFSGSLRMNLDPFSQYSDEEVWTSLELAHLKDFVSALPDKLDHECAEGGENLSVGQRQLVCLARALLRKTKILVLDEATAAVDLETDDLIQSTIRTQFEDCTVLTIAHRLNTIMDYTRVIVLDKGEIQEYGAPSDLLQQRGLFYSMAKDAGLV
T1 sequence (P08183 whole entry): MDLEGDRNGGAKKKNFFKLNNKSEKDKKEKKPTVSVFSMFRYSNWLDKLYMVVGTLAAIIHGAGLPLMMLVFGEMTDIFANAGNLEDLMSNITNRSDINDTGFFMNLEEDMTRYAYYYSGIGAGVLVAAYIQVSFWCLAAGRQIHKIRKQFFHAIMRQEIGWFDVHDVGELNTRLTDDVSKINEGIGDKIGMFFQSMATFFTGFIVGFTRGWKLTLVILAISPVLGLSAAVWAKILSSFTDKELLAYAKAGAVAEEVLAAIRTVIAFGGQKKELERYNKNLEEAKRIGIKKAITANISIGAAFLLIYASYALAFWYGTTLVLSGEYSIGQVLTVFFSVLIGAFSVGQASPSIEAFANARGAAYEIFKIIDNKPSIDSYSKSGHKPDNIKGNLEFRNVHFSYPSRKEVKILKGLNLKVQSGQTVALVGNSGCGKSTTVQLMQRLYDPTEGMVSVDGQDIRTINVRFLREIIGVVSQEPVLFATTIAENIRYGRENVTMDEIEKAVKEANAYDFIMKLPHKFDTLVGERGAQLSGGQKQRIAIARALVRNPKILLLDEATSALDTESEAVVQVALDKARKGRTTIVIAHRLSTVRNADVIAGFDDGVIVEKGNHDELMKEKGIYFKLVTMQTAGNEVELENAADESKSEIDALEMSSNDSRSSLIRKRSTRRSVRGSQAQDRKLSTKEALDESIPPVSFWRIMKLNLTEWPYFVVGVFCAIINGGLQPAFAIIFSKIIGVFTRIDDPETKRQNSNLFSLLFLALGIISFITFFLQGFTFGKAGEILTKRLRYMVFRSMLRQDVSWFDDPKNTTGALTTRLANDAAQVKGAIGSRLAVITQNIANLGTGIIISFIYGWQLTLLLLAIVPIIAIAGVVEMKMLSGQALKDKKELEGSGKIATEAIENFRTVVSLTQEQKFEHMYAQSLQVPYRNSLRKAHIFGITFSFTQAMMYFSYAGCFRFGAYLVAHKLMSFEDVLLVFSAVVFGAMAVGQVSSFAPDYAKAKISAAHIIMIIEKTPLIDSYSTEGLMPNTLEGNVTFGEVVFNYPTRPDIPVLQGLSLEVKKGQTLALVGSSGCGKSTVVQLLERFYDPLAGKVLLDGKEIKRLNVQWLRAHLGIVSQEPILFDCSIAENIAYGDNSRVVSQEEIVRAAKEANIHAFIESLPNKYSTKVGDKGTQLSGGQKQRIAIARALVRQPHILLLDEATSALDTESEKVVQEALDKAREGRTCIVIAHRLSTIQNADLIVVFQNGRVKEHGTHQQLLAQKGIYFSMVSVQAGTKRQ

With `O=C(O)CN(CC(=O)O)Cc1cc2c(cc1O)Oc1cc(O)c(CN(CC(=O)O)CC(=O)O)cc1C21OC(=O)c2ccccc21` [Calcein], the “actively transported by ABCG2” value in the data set with ABCG2 was “−”. For the same compound, the “actively transported by ABCB1” value on ABCB1 is reported as “+”. Also, at ABCC1, the “actively transported by ABCC1” value is reported as “+”.
`CCOc1ccc(-c2nc3ccc(-c4nc5ccc(N6CCN(C)CC6)cc5[nH]4)cc3[nH]2)cc1` [Hoechst 33324]: in the data set on ABCG2, the “actively transported by ABCG2” value was “+”. The “actively transported by ABCC1” value at ABCC1 is “−”.
Regarding `C=Cc1c(C)c2cc3nc(c4c5[nH]c(cc6nc(cc1[nH]2)C(C)=C6CC)c(C)c5C(=O)[C@@H]4C(=O)OC)[C@@H](CCC(=O)O)[C@@H]3C` [Pheophorbide A], the “actively transported by ABCG2” value in the data set on ABCG2 is on record as “+”. Besides, the “actively transported by ABCC1” value at ABCC1 is on record as “−”.
With `COC(=O)c1ccccc1-c1c2ccc(=N)cc-2oc2cc(N)ccc12` [Rhodamine 123], the “actively transported by ABCG2” value with ABCG2 is “−”. The “actively transported by ABCB1” value on ABCB1 was “+”. Besides, the “actively transported by ABCC1” value on ABCC1 is given as “+”.
